Data from ChEMBL document CHEMBL1142752, “Synthesis and antiviral activities of novel N-alkoxy-arylsulfonamide-based HIV protease inhibitors” (Bioorg Med Chem Lett, 2005).

Molecular target: Human immunodeficiency virus type 1 protease (Human immunodeficiency virus 1, UniProt Q72874)
Experiment: Inhibition constant against HIV-1 protease

Ki | SMILES
< 0.005 nM | Nc1ccc(S(=O)(=O)N(C[C@@H](O)[C@H](Cc2ccccc2)NC(=O)O[C@H]2CO[C@H]3OCC[C@H]32)OC2CCCC2)cc1
< 0.005 nM | O=C(N[C@@H](Cc1ccccc1)[C@H](O)CN(OC1CCCC1)S(=O)(=O)c1ccc2c(c1)OCCO2)O[C@H]1CO[C@H]2OCC[C@H]21
0.19 nM | COc1ccc(S(=O)(=O)N(C[C@@H](O)[C@H](Cc2ccccc2)NC(=O)OC2CCOC2)OC2CCCC2)cc1 (some centres not stated)
< 0.005 nM | COc1ccc(S(=O)(=O)N(C[C@@H](O)[C@H](Cc2ccccc2)NC(=O)O[C@H]2CO[C@H]3OCC[C@H]32)OC2CCCC2)cc1
< 0.005 nM | O=C(N[C@@H](Cc1ccccc1)[C@H](O)CN(OC1CCCCC1)S(=O)(=O)c1ccc2c(c1)OCCO2)O[C@H]1CO[C@H]2OCC[C@H]21
< 0.005 nM | COc1ccc(S(=O)(=O)N(C[C@@H](O)[C@H](Cc2ccccc2)NC(=O)O[C@@H]2COC3OCCC32)OC2CCCC2)cc1 (some centres not stated)
< 0.005 nM | O=C(N[C@@H](Cc1ccccc1)[C@H](O)CN(OC1CCCC1)S(=O)(=O)c1ccc(O)cc1)O[C@H]1CO[C@H]2OCC[C@H]21
< 0.005 nM | O=C(N[C@@H](Cc1ccccc1)[C@H](O)CN(OC1CCCCC1)S(=O)(=O)c1ccc2c(c1)OCO2)O[C@H]1CO[C@H]2OCC[C@H]21
< 0.005 nM | O=C(N[C@@H](Cc1ccccc1)[C@H](O)CN(OC1CCCC1)S(=O)(=O)c1ccc2c(c1)OCO2)O[C@H]1CO[C@H]2OCC[C@H]21
< 0.005 nM | Nc1cccc(S(=O)(=O)N(C[C@@H](O)[C@H](Cc2ccccc2)NC(=O)O[C@H]2CO[C@H]3OCC[C@H]32)OC2CCCC2)c1
< 0.005 nM | O=C(N[C@@H](Cc1ccccc1)[C@H](O)CN(OC1CCCCC1)S(=O)(=O)c1ccc(O)cc1)O[C@H]1CO[C@H]2OCC[C@H]21
< 0.005 nM | COc1ccc(S(=O)(=O)N(CC(O)C(Cc2ccccc2)NC(=O)[C@H](CC(N)=O)NC(=O)c2ccc3ccccc3n2)OC2CCCC2)cc1 (some centres not stated)

SMILES | Ki
COc1ccc(S(=O)(=O)N(C[C@@H](O)[C@H](Cc2ccccc2)NC(=O)OC(C)(C)C)OC2CCCC2)cc1 | 1.6 nM
CCC(CC)ON(C[C@@H](O)[C@H](Cc1ccccc1)NC(=O)OC(C)(C)C)S(=O)(=O)c1ccc(OC)cc1 | 3.2 nM
COc1ccc(S(=O)(=O)N(C[C@@H](O)[C@H](Cc2ccccc2)NC(=O)OC(C)(C)C)OCC2CCCCC2)cc1 | 12 nM
COC(=O)N[C@H](C(=O)N[C@@H](Cc1ccccc1)[C@H](O)CN(OC1CCCC1)S(=O)(=O)c1ccc(OC)cc1)C(C)(C)C | 0.09 nM
COc1ccc(S(=O)(=O)N(C[C@@H](O)[C@H](Cc2ccccc2)NC(=O)OC(C)(C)C)OC2CCCCC2)cc1 | 2.8 nM
COc1ccc(S(=O)(=O)N(C[C@@H](O)[C@H](Cc2ccccc2)NC(=O)OC(C)(C)C)OC(C)C)cc1 [ENTRY A] | 14 nM
Nc1ccc(S(=O)(=O)N(C[C@@H](O)[C@H](Cc2ccccc2)NC(=O)O[C@H]2CO[C@H]3OCC[C@H]32)OC2CCCCC2)cc1 | 0.018 nM
COc1ccc(S(=O)(=O)N(C[C@@H](O)[C@H](Cc2ccccc2)NC(=O)OC(C)(C)C)Oc2ccccc2)cc1 | 22 nM
COc1ccc(S(=O)(=O)N(C[C@@H](O)[C@H](Cc2ccccc2)NC(=O)OC(C)(C)C)OCC(C)C)cc1 | 4 nM
Nc1cccc(S(=O)(=O)N(C[C@@H](O)[C@H](Cc2ccccc2)NC(=O)O[C@H]2CO[C@H]3OCC[C@H]32)OC2CCCCC2)c1 | 0.005 nM
